US20220281866A1, “5,8-DISUBSTITUTED-[1,2,4]TRIAZOLO[1,5-A]PYRIDINYL AND 5,8-DISUBSTITUTED-IMIDAZO[1,2-A]PYRIDINE DERIVATIVES USEFUL AS INHIBITORS OF ENTEROPEPTIDASE” (Janssen Pharmaceutica NV, priority 2019, published 2022)
Values belong to the compound of their own block, whether it stands above or below them.

Tests used:
[1] = molecular target: T1, Recombinant full-length human EP (Enteropeptidase) (Homo sapiens, UniProt P98073); test: In vitro inhibition potencies against Enteropeptidase (EP), fluorescent peptide GDDDDK-naphthylamine substrate; assay type: biochemical; settings: 300 μM substrate, 1.25 nM EP; for kinact/KI: 12-point dose-dependence, time-dependent inhibition, duplicate dilutions, read-out: kinact/KI^App; for inhibition at 0.1 µM: compound 0.1 μM; for inhibition at 1 µM: compound 1 μM; for inhibition at 10 µM: compound 10 μM
T1 construct: Recombinant full-length human EP (PeproTech, Cat #450-48C); purchased PeproTech 450-48C
Protocol: In vitro inhibition potencies against Enteropeptidase (EP) Recombinant full-length human EP (PeproTech, Cat #450-48C) was used in this biochemical assay, with a quenched fluorescent labeled peptide GDDDDK-naphthylamine (NA) (Sigma, Cat #G5261) as the substrate in a buffer of 50 mM Tris-HCl pH 7.4, 200 mM NaCl and 0.01% Triton X-100. The enzyme activity was measured by following the formation of the cleavage product […](NA) by monitoring the fluorescence intensity (FI) at excitation/emission wavelengths of 340/410 nm. The steady-state kinetic characterization studies yielded an average of KM to be 412±22 μM and the apparent turnover number kcat^app of 11.8±0.4 s^−1 (N=2).
Compound inhibition studies were carried out under the conditions of 300 μM substrate and 1.25 nM EP. Reaction progress curves were collected by reading the FI at 340/410 nm continuously for 1 hour at an interval of 1 minute.
To screen compounds of formula (I), inhibition was studied at 4 different compound concentrations of 10 μM, 1 μM, 0.1 μM and 0.01 μM. Initial velocity of the reaction was determined, and percent of inhibition was calculated by comparing to the reaction in the absence of compound.
Accurate measurements of the inhibition potencies of selected compounds were studied in a 12-point dose-dependence fashion. […] Compound potency was measured by determining the inactivation rate constant (kobs) following the reaction change from the initial velocity vi to the steady-state velocity vs at various compound concentrations. The inactivation rate constants (kobs), were derived by fitting the reaction progress curves to eq. 1.
where YT is the detection signal of the reaction at time t, vi and vs are the initial and the steady-state velocities of the reaction, t is the reaction time. Y0 is the background signal (when t=0).
Compound binding mechanism was shown by plotting kobs˜[compound]. Hyperbolic fitting to eq. 2
conforms to a two-step binding mechanism as shown in Scheme BIO-1.
The plateau of the curve is the forward step rate constant of the isomerization step k3, KI^app is the inhibitor concentration that leads to half-maximal rate of inhibition of enzyme under the assay conditions. Compound inhibition potency was reported by the value of k3/KI^app.
A linear dependence of eq.3
indicates a one-step binding mechanism as shown in Scheme BIO-2
Slope of the linear fit gives the second-order rate constant of the compound binding k1, which is used to represent the compound inhibition potency.
(§1) Representative compounds of the present invention were tested according to the procedures as described in Biological Example 1 and Biological Example 2 above, with results as listed in Table 2 and Table 3, below. Results are reported as the %-inhibition (% Inh) or Kinact/KI value. Variability for the functional assay was typically within 20%. For the column headed Kinact/KI the listed measurement is the result of duplicate dilutions.

Bovine trypsin = molecular target: T2, Bovine trypsin (Bos taurus, UniProt P00760); test: Biochemical Assay of Trypsin (T), H-D-CHA-AR-AMC substrate; settings: 15 μM substrate, 0.025 nM Trypsin; for kinact/KI: 12-point dose-dependence, time-dependent inhibition, duplicate dilutions, read-out: Kinact/KI^App; for inhibition at 0.1 µM: compound 0.1 μM; for inhibition at 1 µM: compound 1 μM; for inhibition at 10 µM: compound 10 μM
T2 construct: purchased Sigma-Aldrich T1426
T2 sequence (P00760 24-246): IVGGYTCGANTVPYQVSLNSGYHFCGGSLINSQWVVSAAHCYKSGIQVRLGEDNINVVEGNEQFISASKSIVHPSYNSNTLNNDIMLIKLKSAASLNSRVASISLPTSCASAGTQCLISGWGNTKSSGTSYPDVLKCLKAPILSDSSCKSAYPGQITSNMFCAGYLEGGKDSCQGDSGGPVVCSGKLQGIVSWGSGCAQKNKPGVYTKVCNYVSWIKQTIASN
Protocol: Bovine trypsin was purchased from Sigma-Aldrich (Cat No. T1426), and 7-amino-4-methylcoumarin (AMC) conjugated peptide H-D-cyclohexylalanine (D-CHA)-AR-AMC was used as the substrate in the assay. The protease activity of trypsin was followed by measuring AMC production by the emission fluorescence intensity of AMC at 460 nm with the excitation at 375 nm, in the same assay buffer as used in the EP assay. The enzyme kinetic characterization studies yielded an average of KM to be 3.9±0.5 μM and the apparent turnover number kcat^app of 33.8±0.4 s^−1 (N=2).
Studies of compound inhibition against T were carried out under the conditions of 15 μM substrate and 0.025 nM Trypsin. Reaction progress curves were collected by reading the FI at 375/460 nm continuously for 1 hour at an interval of 1 minute. Similar to the procedure for Enteropeptidase described above, compounds of formula (I) were screened against Trypsin at 4 different concentrations to obtain the percent of inhibition at 10 μM, 1 μM, 0.1 μM and 0.01 μM, and accurate potencies of selected compounds against Trypsin were derived from detailed 12-point dose-dependence studies for time-dependent inhibitors.
as §1

T1 sequence (P98073 whole entry): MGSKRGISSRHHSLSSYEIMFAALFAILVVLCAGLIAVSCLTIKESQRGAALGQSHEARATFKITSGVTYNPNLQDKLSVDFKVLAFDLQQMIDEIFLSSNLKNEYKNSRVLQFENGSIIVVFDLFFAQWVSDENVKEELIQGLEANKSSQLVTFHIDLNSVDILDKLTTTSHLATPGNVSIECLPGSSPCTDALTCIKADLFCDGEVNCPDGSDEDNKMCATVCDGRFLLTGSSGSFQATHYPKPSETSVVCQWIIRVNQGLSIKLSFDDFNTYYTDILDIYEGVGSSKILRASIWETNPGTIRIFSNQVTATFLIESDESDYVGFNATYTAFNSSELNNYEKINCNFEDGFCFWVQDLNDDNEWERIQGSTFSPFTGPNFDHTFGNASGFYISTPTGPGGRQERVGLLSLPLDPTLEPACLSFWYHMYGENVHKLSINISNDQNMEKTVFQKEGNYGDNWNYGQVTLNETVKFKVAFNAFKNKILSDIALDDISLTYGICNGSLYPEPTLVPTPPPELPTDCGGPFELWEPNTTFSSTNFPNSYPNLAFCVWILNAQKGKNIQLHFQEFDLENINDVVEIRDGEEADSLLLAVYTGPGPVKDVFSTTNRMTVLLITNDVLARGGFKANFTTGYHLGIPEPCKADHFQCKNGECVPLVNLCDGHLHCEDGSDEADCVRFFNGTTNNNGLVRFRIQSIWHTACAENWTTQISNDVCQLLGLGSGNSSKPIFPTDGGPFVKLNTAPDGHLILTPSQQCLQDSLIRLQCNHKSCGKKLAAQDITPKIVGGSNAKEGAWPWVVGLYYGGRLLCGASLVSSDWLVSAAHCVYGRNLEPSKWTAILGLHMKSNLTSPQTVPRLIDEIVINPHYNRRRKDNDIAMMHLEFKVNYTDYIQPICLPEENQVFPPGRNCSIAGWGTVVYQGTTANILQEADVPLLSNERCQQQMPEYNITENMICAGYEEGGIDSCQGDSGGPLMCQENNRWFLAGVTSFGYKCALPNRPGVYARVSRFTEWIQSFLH

Compound: C#CCOCCOCC#Cc1cc(NC(=N)N)ccc1C(=O)Oc1ccc(CC(=O)O)n2ncnc12 [Compound 42, 2-(8-((4-guanidino-2-(3-(2-(prop-2-yn-1-yloxy)ethoxy)prop-1-yn-1-yl)benzoyl)oxy)-[1,2,4]triazolo[1,5-a]pyridin-5-yl)acetic acid]
kinact/KI [1]: 52800 M⁻¹ s⁻¹ | inhibition at 0.1 µM [1]: 62.3% | inhibition at 1 µM [1]: 98.5% | inhibition at 10 µM [1]: 99.8% | kinact/KI (Bovine trypsin): 59400 M⁻¹ s⁻¹ | inhibition at 0.1 µM (Bovine trypsin): 52.9% | inhibition at 1 µM (Bovine trypsin): 99.6% | inhibition at 10 µM (Bovine trypsin): 100%

Compound: N=C(N)Nc1ncc(C(=O)Oc2ccc(CC(=O)NC(CC(=O)O)C(=O)O)n3ccnc23)cn1 (stereo not drawn) [Compound 31, 2-(2-(8-(2-guanidinopyrimidine-5-carbonyloxy)imidazo[1,2-a]pyridin-5-yl)acetamido)succinic acid]
inhibition at 0.1 µM [1]: 85.8% | inhibition at 1 µM [1]: 99.7% | inhibition at 10 µM [1]: 99.8% | inhibition at 0.1 µM (Bovine trypsin): 95.7% | inhibition at 1 µM (Bovine trypsin): 99.9% | inhibition at 10 µM (Bovine trypsin): 100%

Compound: N=C(N)Nc1ccc(C(=O)Oc2ccc(CC(=O)O)n3ncnc23)cc1Cl [Compound 16, 2-(8-(3-chloro-4-guanidinobenzoyloxy)-[1,2,4]triazolo[1,5-a]pyridin-5-yl)acetic]
inhibition at 0.1 µM [1]: 18.7% | inhibition at 1 µM [1]: 84.4% | inhibition at 10 µM [1]: 101% | inhibition at 0.1 µM (Bovine trypsin): 6.3% | inhibition at 1 µM (Bovine trypsin): 56.6% | inhibition at 10 µM (Bovine trypsin): 99.8%

Compound: N=C(N)Nc1ccc(C(=O)Oc2cc(CC(=O)O)cn3ncnc23)cc1 [Compound 26, 2-(8-(4-guanidinobenzoyloxy)-[1,2,4]triazolo[1,5-a]pyridin-6-yl)acetic acid]
inhibition at 0.1 µM [1]: 13.2% | inhibition at 1 µM [1]: 58.8% | inhibition at 10 µM [1]: 101% | inhibition at 0.1 µM (Bovine trypsin): 81.7% | inhibition at 1 µM (Bovine trypsin): 100% | inhibition at 10 µM (Bovine trypsin): 100%

Compound: N#Cc1cc(C(=O)Oc2ccc(CC(=O)O)n3ncnc23)ccc1NC(=N)N [Compound 22, 2-(8-(3-cyano-4-guanidinobenzoyloxy)-[1,2,4]triazolo[1,5-a]pyridin-5-yl)acetic acid]
inhibition at 0.1 µM [1]: -3% | inhibition at 1 µM [1]: -6.3% | inhibition at 10 µM [1]: 32.1% | inhibition at 0.1 µM (Bovine trypsin): 0.9% | inhibition at 1 µM (Bovine trypsin): 12.3% | inhibition at 10 µM (Bovine trypsin): 29.9%

Compound: N=C(N)Nc1ccc(C(=O)Oc2ccc(CC(=O)O)n3ncnc23)s1 [Compound 10, 2-(8-(5-guanidinothiophene-2-carbonyloxy)-[1,2,4]triazolo[1,5-a]pyridin-5-yl)acetic acid]
inhibition at 0.1 µM [1]: 82% | inhibition at 1 µM [1]: 100% | inhibition at 10 µM [1]: 100% | inhibition at 0.1 µM (Bovine trypsin): 93.8% | inhibition at 1 µM (Bovine trypsin): 99.9% | inhibition at 10 µM (Bovine trypsin): 99.8%

Compound: N=C(N)Nc1ccc(C(=O)Oc2ccc(CC(=O)NC(CC(=O)O)C(=O)O)n3ncnc23)cc1 (stereo not drawn) [Compound 5, 2-(2-(8-(4-guanidinobenzoyloxy)-[1,2,4]triazolo[1,5-a]pyridin-5-yl)acetamido)succinic acid]
inhibition at 0.1 µM [1]: 48.3% | inhibition at 1 µM [1]: 101% | inhibition at 10 µM [1]: 100% | inhibition at 0.1 µM (Bovine trypsin): 98.3% | inhibition at 1 µM (Bovine trypsin): 100% | inhibition at 10 µM (Bovine trypsin): 100%

Compound: N=C(N)Nc1ccc(C(=O)Oc2ccc(CC(=O)NC(CC(=O)O)C(=O)O)n3ccnc23)cc1 (stereo not drawn) [Compound 27, 2-(2-(8-(4-guanidinobenzoyloxy)imidazo[1,2-a]pyridin-5-yl)acetamido)succinic acid]
inhibition at 0.1 µM [1]: 81.2% | inhibition at 1 µM [1]: 100% | inhibition at 10 µM [1]: 100% | inhibition at 0.1 µM (Bovine trypsin): 99.3% | inhibition at 1 µM (Bovine trypsin): 100% | inhibition at 10 µM (Bovine trypsin): 100%

Compound: CS(=O)(=O)NC(=O)Cc1ccc(OC(=O)c2ccc(NC(=N)N)cc2)c2ncnn12 [Compound 8, 5-(2-(methylsulfonamido)-2-oxoethyl)-[1,2,4]triazolo[1,5-a]pyridin-8-yl4-guanidinobenzoate]
kinact/KI [1]: 181000 M⁻¹ s⁻¹ | inhibition at 0.1 µM [1]: 101% | inhibition at 1 µM [1]: 100% | inhibition at 10 µM [1]: 100% | kinact/KI (Bovine trypsin): 163000 M⁻¹ s⁻¹ | inhibition at 0.1 µM (Bovine trypsin): 98.8% | inhibition at 1 µM (Bovine trypsin): 100% | inhibition at 10 µM (Bovine trypsin): 99.9%

Compound: N=C(N)Nc1ccc(C(=O)Oc2ccc(CC(=O)NCC(=O)O)n3ncnc23)cc1 [Compound 4, 2-(2-(8-(4-guanidinobenzoyloxy)-[1,2,4]triazolo[1,5-a]pyridin-5-yl)acetamido)acetic acid]
inhibition at 0.1 µM [1]: 48.1% | inhibition at 1 µM [1]: 101% | inhibition at 10 µM [1]: 100% | inhibition at 0.1 µM (Bovine trypsin): 99.7% | inhibition at 1 µM (Bovine trypsin): 100% | inhibition at 10 µM (Bovine trypsin): 100%

Other lines, results leading:

inhibition at 0.1 µM [1]: 0.5% | inhibition at 1 µM [1]: 12.2% | inhibition at 10 µM [1]: 51.8% | inhibition at 0.1 µM (Bovine trypsin): 1.6% | inhibition at 1 µM (Bovine trypsin): 2.8% | inhibition at 10 µM (Bovine trypsin): 25.5%
Compound: N=C(NN)c1ccc(C(=O)Oc2ccc(CC(=O)O)n3ncnc23)cc1 [Compound 39, 2-(8-(4-(hydrazinyl(imino)methyl)benzoyloxy)-[1,2,4]triazolo[1,5-a]pyridin-5-yl)acetic acid]

kinact/KI [1]: 72800 M⁻¹ s⁻¹ | inhibition at 0.1 µM [1]: 96.8% | inhibition at 1 µM [1]: 100% | inhibition at 10 µM [1]: 100% | kinact/KI (Bovine trypsin): 69700 M⁻¹ s⁻¹ | inhibition at 0.1 µM (Bovine trypsin): 87.6% | inhibition at 1 µM (Bovine trypsin): 100% | inhibition at 10 µM (Bovine trypsin): 100%
Compound: N=C(N)Nc1ccc(C(=O)Oc2ccc(CC(=O)O)n3ncnc23)cc1F [Compound 14, 2-(8-(3-fluoro-4-guanidinobenzoyloxy)-[1,2,4]triazolo[1,5-a]pyridin-5-yl)acetic acid]

inhibition at 0.1 µM [1]: 34.3% | inhibition at 1 µM [1]: 92.1% | inhibition at 10 µM [1]: 101% | inhibition at 0.1 µM (Bovine trypsin): 12.4% | inhibition at 1 µM (Bovine trypsin): 73.1% | inhibition at 10 µM (Bovine trypsin): 100%
Compound: N=C(N)Nc1ccc(C(=O)Oc2ccc(CC(=O)O)n3ncnc23)cc1O [Compound 23, 2-(8-(4-guanidino-3-hydroxybenzoyloxy)-[1,2,4]triazolo[1,5-a]pyridin-5-yl)acetic acid]

inhibition at 0.1 µM [1]: -0.8% | inhibition at 1 µM [1]: 11.3% | inhibition at 10 µM [1]: 52.3% | inhibition at 0.1 µM (Bovine trypsin): 5.7% | inhibition at 1 µM (Bovine trypsin): 8.7% | inhibition at 10 µM (Bovine trypsin): 66.5%
Compound: CNC(=N)c1ccc(C(=O)Oc2ccc(CC(=O)O)n3ncnc23)cc1 [Compound 33, 2-(8-(4-(N-methylcarbamimidoyl)benzoyloxy)-[1,2,4]triazolo[1,5-a]pyridin-5-yl)acetic acid]

inhibition at 0.1 µM [1]: 40.5% | inhibition at 1 µM [1]: 93.8% | inhibition at 10 µM [1]: 99.3% | inhibition at 0.1 µM (Bovine trypsin): 31.4% | inhibition at 1 µM (Bovine trypsin): 89.2% | inhibition at 10 µM (Bovine trypsin): 98.9%
Compound: CN(C(=N)N)c1ccc(C(=O)Oc2ccc(CC(=O)O)n3ncnc23)cc1 [Compound 35, 2-(8-(4-(1-methylguanidino)benzoyloxy)-[1,2,4]triazolo[1,5-a]pyridin-5-yl)acetic acid]
